Laboratory results: EP0044212B1, “Herbicidal o-alkylsulfonyloxy- and o-alkylsulfonylamino-benzenesulfonamides” (E.I. DU PONT DE NEMOURS AND COMPANY, priority 1980, dated 1982)

Tests used:
Wild Oats [1] = test: Test B pre-emergence on Fallsington silt loam; format: in vivo, Avena fatua; parameters: scale not given here; details: 28 days
From the text: (§1) Two plastic bulb pans were filled with fertilized and limed Fallsington silt loam soil. One pan was planted with corn, sorghum, Kentucky bluegrass and several grassy weeds. The other pan was planted with cotton, soybeans, purple nutsedge (Cyperus rotundus), and several broadleaf weeds. The following grassy and broadleaf weeds were planted: crabgrass (Digitaria sanguinalis), barnyardgrass (Echinochloa crusgalli), wild oats (Avena fatua), johnsongrass (Sorghum halepense), dallisgrass (Paspalum dilatatum), giant foxtail (Setaria faberii), cheatgrass (Bromus secalinus), mustard (Brassica arvensis), cocklebur (Xanthium pensylvanicum), pigweed (Amaranthus retroflexus), morningglory (Ipomoea hederacea), cassia (Cassia tora), teaweed (Sida spinosa), velvetleaf (Abutilon theophrasti), and jimsonweed (Datura stramonium). A 12.5 cm diameter plastic pot was also filed with prepared soil and planted with rice and wheat. Another 12.5 cm pot was planted with sugarbeets. The above four containers were treated pre- emergence with several test compounds within the scope of the invention.
(§2) Twenty-eight days after treatment, the plants were evaluated and visually rated for response to the chemical treatments utilizing the rating system described previously for Test A. The data are summarized in Table B.

Cotton = test: Test B pre-emergence on Fallsington silt loam; format: in vivo; details: 28 days
From the text: as §1, §2

Sorghum [2] = test: Test B pre-emergence on Fallsington silt loam; format: in vivo; details: 28 days
From the text: as §1, §2

Barnyardgrass [3] = test: Test F over-the-top soil/foliage treatment; format: in vivo, Echinochloa crusgalli; parameters: scale not given here; details: soil/foliage spray, ~14 days
Experimental: (§3) The test chemicals, dissolved in a non-phytotoxic solvent, were applied in an overall spray to the foliage and surrounding […] of selected plant species. […] Approximately fourteen days after treatment, all species were visually compared to untreated controls and rated for response to treatment.
(§4) All plant species were seeded in Woodstown sandy loam soil and grown in a greenhouse. The following species were grown in soil contained in plastic pots (25 cm diameter by 13 cm deep): soybeans, cotton, alfalfa, corn, rice, wheet, sorghum, velvetleaf (Abutilon theophrasti), sesbania (Sesbania exaltata), Cassia (Cassia tora), morningglory (Ipomoea hederacea), jimsonweed (Datura stramonium), cocklebur (Xanthium pensylvanicum), crabgrass (Digitaria spp.), nutsedge (Cyperus rotundus), barnyardgrass (Echinochloa crusgalli), giant foxtail (Setaria faberii) and wild oats (Avena fatua). The following species were grown in soil in a paper cup (12 cm diameter by 13 cm deep): sunflower, sugarbeets, and mustard. All plants were sprayed approximately 14 days after planting.

Sunflower = test: Test F over-the-top soil/foliage treatment; format: in vivo; details: soil/foliage spray, ~14 days
Experimental: as §3, §4

Mustard = test: Test F over-the-top soil/foliage treatment; format: in vivo; details: soil/foliage spray, ~14 days
Experimental: as §3, §4

Corn [4] = test: Test F over-the-top soil/foliage treatment; format: in vivo; details: soil/foliage spray, ~14 days
Experimental: as §3, §4

Sugarbeets = test: Test F over-the-top soil/foliage treatment; format: in vivo; details: soil/foliage spray, ~14 days
Experimental: as §3, §4

Wheat = test: Test F over-the-top soil/foliage treatment; format: in vivo, wheet; parameters: scale not given here; details: soil/foliage spray, ~14 days
Experimental: as §3, §4

Wild Oats [5] = test: Test F over-the-top soil/foliage treatment; format: in vivo, Avena fatua; parameters: scale not given here; details: soil/foliage spray, ~14 days
Experimental: as §3, §4

Morningglory = test: Test B pre-emergence on Fallsington silt loam; format: in vivo, Ipomoea hederacea; details: 28 days
From the text: as §1, §2

Cassia = test: Test B pre-emergence on Fallsington silt loam; format: in vivo, Cassia tora; details: 28 days
From the text: as §1, §2

Giant Foxtail [6] = test: Test F over-the-top soil/foliage treatment; format: in vivo, Setaria faberii; parameters: scale not given here; details: soil/foliage spray, ~14 days
Experimental: as §3, §4

Dallisgrass = test: Test B pre-emergence on Fallsington silt loam; format: in vivo, Paspalum dilatatum; parameters: scale not given here; details: 28 days
From the text: as §1, §2

Johnsongrass = test: Test B pre-emergence on Fallsington silt loam; format: in vivo, Sorghum halepense; parameters: scale not given here; details: 28 days
From the text: as §1, §2

Jimsonweed = test: Test F over-the-top soil/foliage treatment; format: in vivo, Datura stramonium; details: soil/foliage spray, ~14 days
Experimental: as §3, §4

Alfalfa = test: Test F over-the-top soil/foliage treatment; format: in vivo; parameters: scale not given here; details: soil/foliage spray, ~14 days
Experimental: as §3, §4

Sorghum [7] = test: Test F over-the-top soil/foliage treatment; format: in vivo; parameters: scale not given here; details: soil/foliage spray, ~14 days
Experimental: as §3, §4

Ky. bluegrass = test: Test B pre-emergence on Fallsington silt loam; format: in vivo, Kentucky bluegrass; parameters: scale not given here; details: 28 days
From the text: as §1, §2

Sesbania = test: Test F over-the-top soil/foliage treatment; format: in vivo, Sesbania exaltata; parameters: scale not given here; details: soil/foliage spray, ~14 days
Experimental: as §3, §4

Pigweed = test: Test B pre-emergence on Fallsington silt loam; format: in vivo, Amaranthus retroflexus; details: 28 days
From the text: as §1, §2

Cocklebur = test: Test B pre-emergence on Fallsington silt loam; format: in vivo, Xanthium pensylvanicum; details: 28 days
From the text: as §1, §2

Giant Foxtail [8] = test: Test B pre-emergence on Fallsington silt loam; format: in vivo, Setaria faberii; details: 28 days
From the text: as §1, §2

Soybean = test: Test B pre-emergence on Fallsington silt loam; format: in vivo, soybeans; details: 28 days
From the text: as §1, §2

Rice = test: Test B pre-emergence on Fallsington silt loam; format: in vivo; details: 28 days
From the text: as §1, §2

Cheatgrass = test: Test B pre-emergence on Fallsington silt loam; format: in vivo, Bromus secalinus; details: 28 days
From the text: as §1, §2

Nutsedge = test: Test B pre-emergence on Fallsington silt loam; format: in vivo, Cyperus rotundus; details: 28 days
From the text: as §1, §2

Barnyardgrass [9] = test: Test B pre-emergence on Fallsington silt loam; format: in vivo, Echinochloa crusgalli; details: 28 days
From the text: as §1, §2

Corn [10] = test: Test B pre-emergence on Fallsington silt loam; format: in vivo; parameters: scale not given here; details: 28 days
From the text: as §1, §2

Crabgrass = test: Test B pre-emergence on Fallsington silt loam; format: in vivo, Digitaria sanguinalis; parameters: scale not given here; details: 28 days
From the text: as §1, §2

## COc1cc(OC)nc(NC(=O)NS(=O)(=O)c2ccccc2OS(C)(=O)=O)n1 [Compound 1, N-[(4,6-Dimethoxypyrimidin-2-yl)aminocarbonyl]-2-hydroxybenzenesulfonamide, methanesulfonate]
Wild Oats [1]; 0.03 kg/ha
  Wild Oats response rating: 6G
Wild Oats [1]; 0.12 kg/ha
  Wild Oats response rating: 10C
Cotton; 0.03 kg/ha
  Cotton response rating: 8G
Sorghum [2]; 0.12 kg/ha
  Sorghum response rating: 10C
Barnyardgrass [3]; 0.015 kg/ha
  Barnyardgrass response rating: 10C
Barnyardgrass [3]; 0.06 kg/ha
  Barnyardgrass response rating: 10C
Sunflower; 0.003 kg/ha
  Sunflower response rating: 10C
Sunflower; 0.007 kg/ha
  Sunflower response rating: 10C
Mustard; 0.003 kg/ha
  Mustard response rating: 10C
Mustard; 0.007 kg/ha
  Mustard response rating: 10C
Corn [4]; 0.06 kg/ha
  Corn response rating: 10C
Sugarbeets; 0.007 kg/ha
  Sugarbeets response rating: 10C
Wheat; 0.003 kg/ha
  Wheat response rating: 1G
Wheat; 0.007 kg/ha
  Wheat response rating: 0
Wheat; 0.015 kg/ha
  Wheat response rating: 0
Wheat; 0.06 kg/ha
  Wheat response rating: 0
Wild Oats [5]; 0.003 kg/ha
  Wild Oats response rating: 3G
Wild Oats [5]; 0.007 kg/ha
  Wild Oats response rating: 3G
Wild Oats [5]; 0.015 kg/ha
  Wild Oats response rating: 3G
Wild Oats [5]; 0.06 kg/ha
  Wild Oats response rating: 6G
Morningglory; 0.03 kg/ha
  Morningglory response rating: 5G
Cassia; 0.12 kg/ha
  Cassia response rating: 10C
Giant Foxtail [6]; 0.003 kg/ha
  Giant Foxtail response rating: 5G
Giant Foxtail [6]; 0.007 kg/ha
  Giant Foxtail response rating: 5G
Dallisgrass; 0.03 kg/ha
  Dallisgrass response rating: 7G
Johnsongrass; 0.12 kg/ha
  Johnsongrass response rating: 10C
Jimsonweed; 0.003 kg/ha
  Jimsonweed response rating: 0
Jimsonweed; 0.007 kg/ha
  Jimsonweed response rating: 0
Jimsonweed; 0.06 kg/ha
  Jimsonweed response rating: 9C
Alfalfa; 0.015 kg/ha
  Alfalfa response rating: 5C
Alfalfa; 0.06 kg/ha
  Alfalfa response rating: 9C
Sorghum [7]; 0.015 kg/ha
  Sorghum response rating: 9C
Sorghum [7]; 0.06 kg/ha
  Sorghum response rating: 10C
Ky. bluegrass; 0.12 kg/ha
  Ky. bluegrass response rating: 10C
Sesbania; 0.003 kg/ha
  Sesbania response rating: 10C
Sesbania; 0.007 kg/ha
  Sesbania response rating: 10C
Sesbania; 0.015 kg/ha
  Sesbania response rating: 9C
Sesbania; 0.06 kg/ha
  Sesbania response rating: 9C
Pigweed; 0.03 kg/ha
  Pigweed response rating: 10C
Cocklebur; 0.03 kg/ha
  Cocklebur response rating: 6G

## CCCS(=O)(=O)Oc1ccccc1S(=O)(=O)NC(=O)Nc1nc(C)nc(OC)n1 [Compound 39, 2-hydroxy-N-[(4-methoxy-6-methyl-1,3,5-triazin-2-yl)aminocarbonyl]benzenesulfonamide, 1-propanesulfonate]
Giant Foxtail [8]; 0.06 kg/ha
  Giant Foxtail response rating: 0
Giant Foxtail [8]; 0.25 kg/ha
  Giant Foxtail response rating: 2G
Wild Oats [1]; 0.06 kg/ha
  Wild Oats response rating: 3G
Wild Oats [1]; 0.25 kg/ha
  Wild Oats response rating: 3G
Soybean; 0.06 kg/ha
  Soybean response rating: 3G
Soybean; 0.25 kg/ha
  Soybean response rating: 4G
Rice; 0.06 kg/ha
  Rice response rating: 0
Rice; 0.25 kg/ha
  Rice response rating: 0
Sorghum [2]; 0.06 kg/ha
  Sorghum response rating: 4G
Barnyardgrass [3]; 0.007 kg/ha
  Barnyardgrass response rating: 2G
Barnyardgrass [3]; 0.015 kg/ha
  Barnyardgrass response rating: 0
Barnyardgrass [3]; 0.03 kg/ha
  Barnyardgrass response rating: 3G
Barnyardgrass [3]; 0.06 kg/ha
  Barnyardgrass response rating: 0
Barnyardgrass [3]; 0.12 kg/ha
  Barnyardgrass response rating: 0
Sunflower; 0.015 kg/ha
  Sunflower response rating: 10C
Sunflower; 0.06 kg/ha
  Sunflower response rating: 10C
Sunflower; 0.12 kg/ha
  Sunflower response rating: 10C
Mustard; 0.06 kg/ha
  Mustard response rating: 10C
Mustard; 0.12 kg/ha
  Mustard response rating: 10C
Corn [4]; 0.007 kg/ha
  Corn response rating: 2G
Corn [4]; 0.06 kg/ha
  Corn response rating: 0
Corn [4]; 0.12 kg/ha
  Corn response rating: 0
Sugarbeets; 0.06 kg/ha
  Sugarbeets response rating: 10C
Wheat; 0.007 kg/ha
  Wheat response rating: 0
Wheat; 0.015 kg/ha
  Wheat response rating: 0
Wheat; 0.03 kg/ha
  Wheat response rating: 0
Wheat; 0.06 kg/ha
  Wheat response rating: 0
Wheat; 0.12 kg/ha
  Wheat response rating: 0
Wild Oats [5]; 0.007 kg/ha
  Wild Oats response rating: 0
Wild Oats [5]; 0.03 kg/ha
  Wild Oats response rating: 2G
Wild Oats [5]; 0.06 kg/ha
  Wild Oats response rating: 0
Wild Oats [5]; 0.12 kg/ha
  Wild Oats response rating: 0
Morningglory; 0.06 kg/ha
  Morningglory response rating: 9G
Cheatgrass; 0.06 kg/ha
  Cheatgrass response rating: 0
Cheatgrass; 0.25 kg/ha
  Cheatgrass response rating: 3G
Nutsedge; 0.06 kg/ha
  Nutsedge response rating: 4G
Nutsedge; 0.25 kg/ha
  Nutsedge response rating: 6G
Barnyardgrass [9]; 0.06 kg/ha
  Barnyardgrass response rating: 4G
Barnyardgrass [9]; 0.25 kg/ha
  Barnyardgrass response rating: 5G
Giant Foxtail [6]; 0.007 kg/ha
  Giant Foxtail response rating: 1G
Giant Foxtail [6]; 0.03 kg/ha
  Giant Foxtail response rating: 2G
Giant Foxtail [6]; 0.06 kg/ha
  Giant Foxtail response rating: 0
Giant Foxtail [6]; 0.12 kg/ha
  Giant Foxtail response rating: 0
Corn [10]; 0.06 kg/ha
  Corn response rating: 2G
Corn [10]; 0.25 kg/ha
  Corn response rating: 4G
Dallisgrass; 0.06 kg/ha
  Dallisgrass response rating: 3G
Dallisgrass; 0.25 kg/ha
  Dallisgrass response rating: 0
Johnsongrass; 0.06 kg/ha
  Johnsongrass response rating: 4G
Johnsongrass; 0.25 kg/ha
  Johnsongrass response rating: 3G
Jimsonweed; 0.12 kg/ha
  Jimsonweed response rating: 0
Alfalfa; 0.06 kg/ha
  Alfalfa response rating: 10C
Sorghum [7]; 0.007 kg/ha
  Sorghum response rating: 3G
Sorghum [7]; 0.03 kg/ha
  Sorghum response rating: 5G
Sorghum [7]; 0.06 kg/ha
  Sorghum response rating: 0
Sorghum [7]; 0.12 kg/ha
  Sorghum response rating: 0
Ky. bluegrass; 0.06 kg/ha
  Ky. bluegrass response rating: 2G
Ky. bluegrass; 0.25 kg/ha
  Ky. bluegrass response rating: 4G
Sesbania; 0.12 kg/ha
  Sesbania response rating: 10C
Pigweed; 0.06 kg/ha
  Pigweed response rating: 4G
Crabgrass; 0.06 kg/ha
  Crabgrass response rating: 2G
Crabgrass; 0.25 kg/ha
  Crabgrass response rating: 2G
Cocklebur; 0.25 kg/ha
  Cocklebur response rating: 10C

## CCCS(=O)(=O)Oc1ccccc1S(=O)(=O)NC(=O)Nc1nc(OC)cc(OC)n1 [Compound 36, N-[(4,6-dimethoxypropimidin-2-yl)aminocarbonyl]-2-hydroxybenzenesulfonamide, 1-propanesulfonate]
Giant Foxtail [8]; 0.06 kg/ha
  Giant Foxtail response rating: 4G
Wild Oats [1]; 0.06 kg/ha
  Wild Oats response rating: 4G
Wild Oats [1]; 0.25 kg/ha
  Wild Oats response rating: 4G
Soybean; 0.06 kg/ha
  Soybean response rating: 2G
Rice; 0.06 kg/ha
  Rice response rating: 3G
Rice; 0.25 kg/ha
  Rice response rating: 5G
Cotton; 0.06 kg/ha
  Cotton response rating: 4G
Morningglory; 0.06 kg/ha
  Morningglory response rating: 4G
Cheatgrass; 0.06 kg/ha
  Cheatgrass response rating: 6G
Cheatgrass; 0.25 kg/ha
  Cheatgrass response rating: 7G
Cassia; 0.06 kg/ha
  Cassia response rating: 6G
Nutsedge; 0.06 kg/ha
  Nutsedge response rating: 7G
Barnyardgrass [9]; 0.06 kg/ha
  Barnyardgrass response rating: 4G
Corn [10]; 0.06 kg/ha
  Corn response rating: 3G
Corn [10]; 0.25 kg/ha
  Corn response rating: 4G
Dallisgrass; 0.06 kg/ha
  Dallisgrass response rating: 4G
Dallisgrass; 0.25 kg/ha
  Dallisgrass response rating: 5G
Ky. bluegrass; 0.06 kg/ha
  Ky. bluegrass response rating: 6G
Ky. bluegrass; 0.25 kg/ha
  Ky. bluegrass response rating: 7G
Crabgrass; 0.06 kg/ha
  Crabgrass response rating: 2G
Crabgrass; 0.25 kg/ha
  Crabgrass response rating: 4G
